From ChEMBL document CHEMBL3045088, “Synthesis and cytotoxic activity of genistein derivatives” (2010)

Experiments:
Assay type in all cases: functional
[1] = system: HT-29; test: Growth inhibition of Homo sapiens (human) HT-29 cells by MTT assay
[2] = system: SGC-7901; test: Growth inhibition of Homo sapiens (human) SGC7901 cells by MTT assay
[3] = system: HL-60; test: Growth inhibition of Homo sapiens (human) HL60 cells by MTT assay

Structure (SMILES) | GI [1] | GI [2] | GI [3]
CCCCCCCCCCOc1ccc(-c2coc3cc(OC(F)F)cc(OCCCCCCCCCC)c3c2=O)cc1 [4',5-DI-N-DECOXY-7-GEM-DIFLUOROMETHYLENATED GENISTEIN] | 14.26 µM | 3.3 µM | 1.63 µM
CCCCCCCOc1ccc(-c2coc3cc(OC(F)F)cc(OCCCCCCC)c3c2=O)cc1 [4',5-DI-N-HEPTOXY-7-GEM-DIFLUOROMETHYLENATED GENISTEIN] | 5.25 µM | 3.39 µM | 1.41 µM
CCCCCCCCOc1ccc(-c2coc3cc(OC(F)F)cc(OCCCCCCCC)c3c2=O)cc1 [4',5-DI-N-OCTOXY-7-GEM-DIFLUOROMETHYLENATED GENISTEIN] | 1.86 µM | 1.64 µM | 0.47 µM
CCCOc1ccc(-c2coc3cc(OC(F)F)cc(OCCC)c3c2=O)cc1 [4',5-DI-N-PROPOXY-7-GEM-DIFLUOROMETHYLENATED GENISTEIN] | 2.5 µM | 2.15 µM | 0.54 µM
O=c1c(-c2ccc(OCc3ccccc3)cc2)coc2cc(OC(F)F)cc(OCc3ccccc3)c12 [4',5-DIBENZYLOXY-7-GEM-DIFLUOROMETHYLENATED GENISTEIN] | 2.82 µM | 4.24 µM | 1.29 µM
CCOc1ccc(-c2coc3cc(OC(F)F)cc(OCC)c3c2=O)cc1 [4',5-DIETHOXY-7-GEM-DIFLUOROMETHYLENATED GENISTEIN] | 11.2 µM | 5.51 µM | 1.75 µM
COc1ccc(-c2coc3cc(OC(F)F)cc(OC)c3c2=O)cc1 [4',5-DIMETHOXY-7-GEM-DIFLUOROMETHYLENATED GENISTEIN] | 9.83 µM | 6.41 µM | 4.61 µM
O=c1c(-c2ccc(OC(F)F)cc2)coc2cc(OC(F)F)cc(O)c12 [4',7-DI-GEM-DIFLUOROMETHYLENATED GENISTEIN] | 5.35 µM | 5.54 µM | 5.5 µM
CC(=O)Oc1ccc(-c2coc3cc(OC(C)=O)cc(O)c3c2=O)cc1 [4',7-DIACETOXY-5-HYDROXYGENISTEIN] | 19.4 µM | 11.24 µM | 5.86 µM
C=CCOc1ccc(-c2coc3cc(OCC=C)cc(O)c3c2=O)cc1 [4',7-DIALLYLOXY-5-HYDROXYGENISTEIN] | 14.2 µM | 6.51 µM | 3.44 µM
CCCCCCCCCCOc1ccc(-c2coc3cc(OCCCCCCCCCC)cc(O)c3c2=O)cc1 [4',7-DIDECYLOXY-5-HYDROXYGENISTEIN] | 11.6 µM | 4.27 µM | 3.09 µM
COc1ccc(-c2coc3cc(OC)cc(O)c3c2=O)cc1 [4',7-DIMETHOXY-5-HYDROXYGENISTEIN] | 4.18 µM | 7.78 µM | 5.14 µM
CCCCCCCCOc1ccc(-c2coc3cc(OCCCCCCCC)cc(O)c3c2=O)cc1 [4',7-DIOCTYLOXY-5-HYDROXYGENISTEIN] | 10.8 µM | 4.82 µM | 1.62 µM
CC(=O)Oc1cc(O)c2c(=O)c(-c3ccc(O)cc3)coc2c1 [7-ACETOXY-4',5-DIHYDROXYGENISTEIN] | 4.21 µM | 8.11 µM | 4.95 µM
O=c1c(-c2ccc(O)cc2)coc2cc(OC(F)F)cc(O)c12 [7-GEM-DIFLUOROMETHYLENATED GENISTEIN] | 4.56 µM | 4.59 µM | 3.53 µM
O=c1c(-c2ccc(O)cc2)coc2cc(O)cc(O)c12 [GENISTEIN] | 4.11 µM | 5.78 µM | 4.82 µM
COc1cc(O)c2c(=O)c(-c3ccc(O)cc3)coc2c1 [PRUNETIN] | 5.11 µM | 3.94 µM | 4.35 µM
